From patent US12338219B2, “Antimalarial agents” (Merck Sharp & Dohme LLC, priority 2019, dated 2025) come the findings set out here.

The test has as its system parasites (ring stage parasites, parasite growth). Description: Parasite LDH growth assay (Parasite Assay), antiparasite potency. Type of test: cell-based. To be noted: 72 hours growth, LDH readout. How it is done: Assessing Antiparasite Potency in a Parasite LDH Growth Assay (Parasite Assay) The parasite stock was maintained at […] in RPMI-Hepes media buffered with sodium bicarbonate and supplemented with […]. […] On the day of assay set up, a blood smear of the parasite culture was Giemsa stained and counted. The parasitemia was adjusted to 0.7% rings and the haematocrit was diluted to 2% in RPMI-Hepes media buffered with sodium bicarbonate and supplemented with 500 heat inactivated human serum and 0.5% albumax. 30 ul of diluted parasites are then added into 10 ul of media+compound in pre-prepared Greiner TC assay plates. Parasite assay plates were placed in gassed humidified boxes in single layer and allowed to incubate at 37° C. for 72 hours. After 72 hours growth, assay plates are sealed with parafilm and frozen flat, in single file at −80° C. overnight. On the following day, assay plates are allowed to thaw at room temperature for 4 hours to which an LDH assay is performed to measure parasite growth.

A word on the EC50: it is the concentration giving half of the maximal effect. Read a high EC50 as a need for much substance.

In turn, `CC1[C@@H]([C@H](c2cccnc2)N2C(=N)NC(C)(C)CC2=O)[C@@H]1C(=O)N[C@H]1CC(C)(C)Oc2ccccc21` (stereo partly drawn) [Example 57B] returned an EC50 (72 h, Table 3) of 100 nM.
`CCC1(CC)CC(=O)N([C@@H](c2cccnc2)[C@@H]2C(C)[C@H]2C(=O)N[C@H]2C[C@H](C(F)(F)F)Oc3ccccc32)C(=N)N1` (stereo partly drawn) [Example 55B] registered an EC50 (72 h, Table 3) of 180 nM. Against the preceding molecule, the EC50 is about 1.8-fold higher.
Consider `CC1C[C@H](NC(=O)[C@@H]2C[C@H]2CN2C(=N)NC(C)(C)CC2=O)c2cc(F)ccc2O1` (stereo partly drawn) [Example 139B], for which, where the note is “Table 3”, a half-maximal response (EC50) required 130 nM.
For the setting “72 h, Table 3”, `CC1(C)CC(=O)N([C@@H](c2ccc(C#N)cc2)[C@@H]2C[C@H]2C(=O)N[C@H]2C[C@H](C(F)(F)F)Oc3ccccc32)C(=N)N1` [Example 47A] displayed an EC50 of 155 nM.
Under “Table 3”, `COCC1(C)CC(NC(=O)[C@@H]2C[C@H]2[C@@H](c2cccnc2)N2C(=N)NC(C)(C)CC2=O)c2ccccc2O1` (single isomer, unassigned) [Example 108D] had a half-maximal effective concentration (EC50) of 8.5 nM. This counts as single-digit nanomolar.
`CC[C@]1(C)CC(=O)N([C@H](CCOC)[C@@H]2C[C@H]2C(=O)N[C@H]2CC(C)(C)Oc3ccc(Cl)cc32)C(=N)N1` [Example 124]: the midpoint of the response (72 h, Table 3), the EC50, lay at 0.8 nM.
Same read-out and setting: the same measure for `COCC[C@H]([C@@H]1C[C@H]1C(=O)N[C@@H]1CC(C)(C)Oc2cc(OC(F)(F)F)ccc21)N1C(=N)NC(C)(C)CC1=O` [Example 134A]: 71 nM.
`CCC1(CC)CC(=O)N([C@H](CCOC)[C@@H]2C[C@H]2C(=O)NC2CC(C)(C)Oc3cc(Cl)ccc32)C(=N)N1` (single isomer, unassigned) [Example 147B] yielded an EC50 (Table 4 (unit inferred)) of 8.2 nM. In other words, the single-digit nanomolar range.
With `CCC1(CC)CC(NC(=O)[C@@H]2C[C@H]2[C@@H](CCOC)N2C(=N)NC(C)(C)CC2=O)c2ccccc2O1` (stereo partly drawn) [Example 92A], a half-maximal effect (72 h, Table 3) (EC50) was put at 7.6 nM.
Where the note is “Table 3”, `COCC[C@H]([C@@H]1C[C@H]1C(=O)NC1CC(C)(C)Oc2c(Cl)cc(Cl)cc21)N1C(=N)NC(C)(C)CC1=O` (stereo partly drawn) [Example 106B] yielded an EC50 of 10 nM.
The molecule `CC1(C)CC(=O)N([C@H](c2cccnc2)[C@@H]2C[C@H]2C(=O)NC2CC(C)(C)Oc3cccc(F)c32)C(=N)N1` (stereo partly drawn) [Example 86A] yielded an EC50 (72 h, Table 3) of 2.2 nM. This counts as single-digit nanomolar.
As to `CCC1(CC)CC(=O)N(C[C@@H]2C(C)[C@H]2C(=O)N[C@@H]2c3ccccc3CC2(C)O)C(=N)N1` (single isomer, unassigned) [Example 29B], the EC50 (Table 3) was determined as 351 nM.
Molecule `CC1(C)CC(=O)N([C@H](c2cccnc2)[C@@H]2C[C@H]2C(=O)NC2CC(C)(C)Oc3c(Cl)cccc32)C(=N)N1` (stereo partly drawn) [Example 121B] came in with an EC50 (Table 3) of 2 nM.
For the molecule `CCC1(CC)CC(=O)N([C@H](CCOC)[C@@H]2C[C@H]2C(=O)NC2CC(C)(C)Oc3c(Cl)cccc32)C(=N)N1` (stereo partly drawn) [Example 148A], it took 2.7 nM to reach a half-maximal effect (72 h, Table 4 (unit inferred)) (EC50).
The molecule `COCC[C@H]([C@@H]1C[C@H]1C(=O)NC1CC(C)(C)Oc2ccc(OC(F)(F)F)cc21)N1C(=N)NC(C)(C)CC1=O` (stereo partly drawn) [Example 126B] yielded a half-maximal effective concentration (EC50) (Table 3) of 8.4 nM.
For the molecule `CC[C@]1(C)CC(=O)N([C@H](CCOC)[C@@H]2C[C@H]2C(=O)N[C@H]2CC(C)(C)Oc3ccc(C)cc32)C(=N)N1` [Example 123], the EC50 (72 h, Table 3) turned out to be 2 nM.
Under “72 h, Table 3”, `CC[C@]1(C)CC(=O)N([C@@H](CCOC)[C@@H]2C[C@H]2C(=O)N[C@H]2C[C@H](C(F)(F)F)Oc3ccccc32)C(=N)N1` [Example 62A] displayed an EC50 of 31 nM.
Molecule `CCC1(CC)CC(=O)N(C[C@H]2C[C@@H]2C(=O)N[C@H]2CCOc3ccccc32)C(=N)N1` [Example 4A] showed an EC50 (72 h, Table 3) of 94 nM. Compared with the last molecule, the EC50 is about 3-fold higher.
`COc1cccc2c1C(NC(=O)[C@@H]1C[C@H]1[C@@H](c1cccnc1)N1C(=N)NC(C)(C)CC1=O)CC(C)(C)O2` (stereo partly drawn) [Example 96B] had an EC50 (Table 3) of 3.3 nM. This lies in the single-digit nanomolar range.
Regarding `CC1(C)CC(=O)N([C@H](c2cccnc2)[C@@H]2C[C@H]2C(=O)NC2CC(C)(C)Oc3ccc(F)cc32)C(=N)N1` (single isomer, unassigned) [Example 98B], the half-maximal effective concentration (EC50) (Table 3) is 2.2 nM.
The molecule `CCC1(CC)CC(=O)N([C@H](CCOC)[C@@H]2C[C@H]2C(=O)N[C@@H]2c3ccccc3OC(C)(C)[C@H]2O)C(=N)N1` [Example 145] came in with a concentration for a half-maximal effect (EC50) (72 h, Table 4 (unit inferred)) of 8.4 nM. This counts as single-digit nanomolar.
In turn, `CCC1(CC)CC(=O)N(C(CC(C)OC)[C@@H]2C[C@H]2C(=O)N[C@H]2CC(C)(C)Oc3ccccc32)C(=N)N1` (single isomer, unassigned) [Example 142B] gave an EC50 (Table 4 (unit inferred)) of 0.7 nM.
For the setting “72 h, Table 3”, `CC1(C)CC(=O)N(C[C@@H]2C[C@H]2C(=O)N[C@H]2CC3(CCC3)Oc3ccccc32)C(=N)N1` [Example 135] showed an EC50 of 190 nM.
Same read-out and setting: the same measure for `CC[C@]1(C)CC(=O)N([C@H](c2cncc(F)c2)[C@@H]2C[C@H]2C(=O)N[C@@H]2c3ccccc3OCC2(C)C)C(=N)N1` [Example 102A]: 0.8 nM.
`CCC1(CC)CC(=O)N(CC2CC2C(=O)N[C@H]2CCOc3ccccc32)C(=N)N1` (stereo partly drawn) [Example 4D] yielded an EC50 (Table 3) of 91 nM.
The same measure, in the same setting: the same measure for `CCC1C[C@H](NC(=O)[C@@H]2C[C@H]2CN2C(=N)NC(C)(C)CC2=O)c2ccccc2O1` (single isomer, unassigned) [Example 133A]: 210 nM.
As for `CCC1(CC)CC(=O)N(C[C@@H]2C[C@H]2C(=O)N[C@@H]2c3ccccc3C[C@H]2O)C(=N)N1` [Example 6B], the EC50 (72 h, Table 3) is 269 nM.
Still for that read-out and setting: the same measure for `COc1cncc([C@H]([C@@H]2C[C@H]2C(=O)N[C@H]2CC(C)(C)Oc3ccccc32)N2C(=N)NC(C)(C)CC2=O)c1` [Example 40]: 3.1 nM; for `CC1(C)CC(=O)N([C@@H](c2cncc(Cl)c2)[C@@H]2C[C@H]2C(=O)N[C@H]2CC(C)(C)Oc3ccccc32)C(=N)N1` [Example 58A]: 210 nM.
For `CC1(C)CC(=O)N([C@H](c2cccnc2)[C@@H]2C[C@H]2C(=O)NC2CC(C)(C)Oc3ccc(F)cc32)C(=N)N1` (single isomer, unassigned) [Example 98A], the EC50 (Table 3) was found to be 0.9 nM.
`CC1(C)CC(=O)N([C@H](c2cncc(Cl)c2)[C@@H]2C[C@H]2C(=O)N[C@H]2CC(C)(C)Oc3ccccc32)C(=N)N1` [Example 58B] gave an EC50 (72 h, Table 3) of 1 nM.
The molecule `COCC[C@H]([C@@H]1C[C@H]1C(=O)N[C@@H]1CC(C)(C)Oc2ccc(F)cc21)N1C(=N)NC(C)(C)CC1=O` [Example 72A] yielded an EC50 (72 h, Table 3) of 11 nM.
Under “Table 3”, `CCC1(CC)CC(=O)N(CC2C(C(=O)N[C@H]3C[C@H](C(F)(F)F)Oc4ccccc43)C2(F)F)C(=N)N1` (single isomer, unassigned) [Example 17B] displayed a concentration for a half-maximal effect (EC50) of 20 nM.
Regarding `CC[C@]1(C)CC(=O)N(C(c2cncc(F)c2)[C@@H]2C[C@H]2C(=O)NC2c3ccccc3OC(C(F)(F)F)C2O)C(=N)N1` (single isomer, unassigned) [Example 104B], where the note is “Table 3”, the EC50 was 22 nM.
As for `COCC[C@H]([C@@H]1C[C@H]1C(=O)NC1CC(C)(COC)Oc2ccccc21)N1C(=N)NC(C)(C)CC1=O` (single isomer, unassigned) [Example 82B], under “Table 3”, the EC50 came to 57 nM.
The molecule `CC1(C)CC(=O)N(C[C@@H]2C[C@H]2C(=O)N[C@H]2CC(C3CC3)Oc3ccccc32)C(=N)N1` (stereo partly drawn) [Example 140B] had an EC50 (Table 3) of 280 nM.
Molecule `CCC1(CC)CC(=O)N(C[C@@H]2[C@@H](C(=O)N[C@@H]3c4ccccc4OC(C)(C)[C@H]3O)C2(F)F)C(=N)N1` [Example 18B] gave an EC50 (72 h, Table 3) of 180 nM. This counts as sub-micromolar.
`COCC[C@H]([C@@H]1C[C@H]1C(=O)N[C@H]1CC(C)(C)Oc2cc(OC)ccc21)N1C(=N)NC(C)(C)CC1=O` [Example 70B]: the EC50 (72 h, Table 3) came to 19 nM.
On to `COCC[C@H]([C@@H]1C[C@H]1C(=O)N[C@H]1CC(C)(C)Oc2c(F)cc(F)cc21)N1C(=N)NC(C)(C)CC1=O` [Example 113B], for which the EC50 (72 h, Table 3) worked out at 7.5 nM.
